Results on 3 compounds are retold here after patent publication US20240059644A1, “COMPOUND, COMPOSITION, BIOTISSUE EMBRITTLEMENT AGENT, BIOTISSUE SURFACE DETACHMENT METHOD, AND BIOTISSUE DETACHMENT KIT” (SANYO CHEMICAL INDUSTRIES, LTD., priority 2020, published 2024).

The test system of series [1] is large intestine tissue pieces (crypts). Description: Evaluation 1 of in vitro crypt isolation effect. Format: cell-based, mice (C57B6/j). The settings on record: 37° C. 30 minutes. The protocol: Eight-week-old male mice (C57B6/j, CLEA Japan, Inc.) were sacrificed by cervical dislocation and the whole large intestine was removed. […] The intestinal tract was longitudinally opened and 5-mm-long tissue pieces were obtained. The tissue pieces were placed in 1.5-mL microtubes each containing 1 mL of Hank's balanced salt solution. The tissue pieces were washed by stirring for 10 minutes with a microtube mixer (MT-400 available from TOMY SEIKO CO., LTD.). After washing, the tissue pieces were transferred to other 1.5-mL microtubes each containing 1 mL of Hank's balanced salt solution, and washed in the same manner.
The tissue pieces were transferred to 1.5-mL microtubes containing the compositions (C-1) to (C-6) and the comparative compositions (C′-1) to (C′-7) each in an amount of 1 mL and were allowed to stand at 37° C. for 30 minutes.
After 30 minutes, the tissue pieces were transferred to other 1.5-mL microtubes each containing 1 mL of Hank's balanced salt solution and stirred for five minutes with a microtube mixer. Thereby, the crypts were isolated. […] Thereby, the tissue was fixed. A 50-μL portion was sampled therefrom and dropped onto dishes, and the number of crypts contained was counted using an optical microscope. The number of crypts was counted three times for each concentration, and the average was calculated therefrom.
The presence of one or more crypts was considered that a sufficient embrittlement effect was obtained.

For series [2], the system named is minced distal large intestine tissue (crypts). Description: Evaluation 2 of in vitro crypt isolation effect. The conditions noted are these: 37° C. 30 minutes. It counts as cell-based, mice (C57B6/j). The protocol: Thereby, the crypts were isolated. […] Thereby, the tissue was fixed. A 50-μL portion was sampled therefrom and dropped onto dishes, and the number of crypts contained was counted using an optical microscope. The number of crypts was counted three times for each concentration, and the average was calculated therefrom.

In a further series the test system is proximal large intestine. Description: Evaluation 1 of in vivo epithelial detachment effect. More on the design: species or system mice (C57B6/j). The conditions noted are these: 8 mL at 50° C. over two minutes, once.
Another series has as its system beagle dogs. The settings on record: Ca-EDTA compared with Ca-DTPA; cited from earlier work.

Source text for proximal large intestine: A longitudinal 1-cm abdominal midline incision was made, and the proximal large intestine was exposed to the outside of the abdominal cavity. A small incision was made in the proximal large intestine 1 cm anal side from the cecum, and a catheter was inserted toward the anal. […] A small incision was made 1 cm anal side from the catheter insertion site, and another catheter was inserted toward the oral side. These two catheters allowed perfusion of the 1-cm-long intestinal tract. The catheters were each fixed with a thread from the outside of the intestinal tract, together with the vasculature, to cut off the blood flow in the 1-cm-long intestinal tract sandwiched between the two catheters.
Immediately after the injection of the biological tissue embrittling agents, 25 mL of Dulbecco's phosphate-buffered saline (without Ca and Mg) was continuously injected three times each over 45 seconds, whereby the crypts were detached. Then, 20 mL of Dulbecco's Modified Eagle's Medium, high glucose, (Sigma-Aldrich Cat #D5796) was injected to antagonize the biological tissue embrittling agents. […] The large intestine was longitudinally cut and flat opened, and was imaged with a fluorescent stereo microscope (Leica M165 FC) and an all-in-one fluorescence microscope (KEYENCE BZ-X800). The images were analyzed with ImageJ and the detached area was measured. […]

Turning to `O=C([O-])CN(CCN(CC(=O)O)CC(=O)O)CC(=O)[O-].[Na+].[Na+]` [(Z′-1), disodium ethylenediaminetetraacetate], the Number of crypts in series [1] (2 mM, compositions (C-1), (C′-2)) was 48.67; in series [1] (8 mM, compositions (C-2), (C′-3)) it was 156.33; in series [1] (16 mM, compositions (C-3), (C′-4)) it was 140; in series [1] (32 mM, compositions (C-4), (C′-5)), 129.33; in series [1] (64 mM, compositions (C-5), (C′-6)), 115.33; in series [1] (128 mM, compositions (C-6), (C′-7)), 95.67. Moreover, the Number of crypts was 108.89 in series [2] (3 mM, compositions (C-7) to (C-10), (C′-8)) and 169.56 in series [2] (10 mM, compositions (C-11) to (C-14), (C′-9)). The “Evaluation 1 of epithelial detachment effect Detached area” value with proximal large intestine (230 mM, agents (M-1), (M′-2)) is recorded as 30.2 mm^2; in the series on proximal large intestine (500 mM, agent (M′-3)) it was 66.0 mm^2.
With `O=C([O-])CN(CCN(CC(=O)[O-])CC(=O)[O-])CCN(CC(=O)[O-])CC(=O)[O-].[Ca+2].[Na+].[Na+].[Na+]` [Ca-DTPA], the “safety of intravenous administration for one month” value with beagle dogs was “no significant difference in safety”.
`O=C(O)CN(CCN(CC(=O)O)CC(=O)O)CC(=O)O.[Ca]` [Ca-EDTA]: the “safety of intravenous administration for one month” value in the series with beagle dogs is “no significant difference in safety”.
